Laboratory results from US20250034510A1, “SYSTEMS, DEVICES, AND METHODS FOR BIOLOGICAL MATERIAL RESTORATION AND/OR CRYOPRESERVATION” (Oregon State University, priority 2023, published 2025).
Several values for one entry are separate records, joined by “and”; a condition that tells them apart may be missing. Equal entries are not always repeated.

Tests used:
[1] = DMSO penetration in IVDs tracked by CT; assay type: in vitro ADME, bovine; conditions: for DMSO saturation level: free swelling IVD without compression, 10% DMSO
Description: In this example, the transport of DMSO in free-swelling IVDs was assessed. Three skeletally mature Black Angus bovine IVDs were incubated in 10% DMSO for three days and CT-scanned at 0, 24, 56, and 72 hours. DMSO penetration was tracked using a Toshiba Aquilion 64-slice Computed Tomography (CT) unit provided by the Carlson College of Veterinary Medicine at Oregon State University. Acquisition parameters were set to 120 kVp, 240 FoV, 0.6 pitch, and 250 mA.
Materialize Mimics® 21.0 was used to segment the IVD's soft tissue (AF and NP). A code was developed in MATLAB® 9.9 to perform a Gaussian curve-fitting analysis of the segmented scans, estimating the mean signal intensity (FIG. 12).
The correlation in equation 1 was developed To relate mean signal intensity to penetration %, the mean signal intensity was normalized for the sample of interest (IVDn) to the intensities of both a fresh IVD (IVD0) and a fully-saturated IVD (IVDF*).
The effectiveness of PrimeGrowth™ (n=3) and compression (n=3) in improving the transport of DMSO and decreasing cell CPA exposure time were also assessed. PrimeGrowth™ is designed to clear blood clots in the CEP, improving transport through its pores and channels. Axial compression could enhance the convection transport of fluids in the IVD. IVDs treated with PrimeGrowth™ were incubated in a 30 mL Isolation Medium for one hour and rinsed in an equal volume of Neutralization Medium for two minutes. In a separate protocol, bovine IVDs were compressed in a custom-built bioreactor for four hours under a sine-wave load (0 MPa to 2.5 MPa at 0.1 Hz) and soaked in 10% DMSO. DMSO penetration in IVDs was tracked via CT scans compared to a control group (n=3) soaking in 10% DMSO. CT scans were acquired at 0, 5, 8, 24, and 36 hours.

[2] = test system: nucleus pulposus (NP) cells; assay: Cytotoxicity of CPA 1 on NP cells in monolayer culture (LIVE/DEAD assay); assay type: cell-based, bovine; conditions: PG as part of CPA 1 (FIG. 13)
Text: In this example, NP cells were isolated following a protocol adapted and modified from Wiseman et al. (Wiseman, M. A., H. L. Birch, M. Akmal, and A. E. Goodship, Spine, 2005, 30:505-11). Two freshly skinned skeletally mature bovine tails were obtained from a local abattoir, disinfected for five minutes in a 1% Betadine solution (RC3955, VWR International, PA), and allowed to dry in a sterile environment for ten minutes. Muscle and fat tissue were removed from each tail, exposing the IVDs. The isolated IVDs were wrapped with a sterile gauze soaked in 0.9% sodium chloride (IC102892.5, VWR International, PA) and 55 mM sodium citrate (BDH9288, VWR International, PA) while awaiting dissection.
NP tissue was removed with a scalpel, cut into 4 mm^2 pieces, and digested in a humidified cell incubator at 37° C. and 5% CO2. […]
In this example, NP cells were cultured in 6 well-plates to elucidate the cytotoxicity of CPA 1 composed of 80% DMEM (D6046, Sigma), 10% DMSO (IC0219605590, VWR International, PA), and % 10 propylene glycol (PG) (P4347, Sigma, MO). […] Cells were stained with a fluorescent LIVE/DEAD™ assay (L3224, ThermoFisher, MA) and scanned using Keyence BZ-X700 fluorescence microscope (Oregon State University, OR). […]

In the case of C[S+](C)[O-] [DMSO, dimethylsulfoxide], the “time required for DMSO to fully saturate the disc” value ([1]; IVD compressed before soaking in 10% DMSO) is reported as 3 h, the “time required to reach a 75% level of penetration” value ([1]; IVD without compression) is reported as 72 h and the “time to reach equilibrium with the surrounding solution” value ([1]; IVD without compression (FIG. 14)) is reported as 72 h. The DMSO penetration ([1]; compression then free swelling, in 3 to 4 hours) was “about 90%”, the “decrease of the time required for full penetration by compression (improvement)” value ([1]; compression vs no compression) was 96% and 95% and the DMSO penetration ([1]; compression, at 3 hours) was 97%. The DMSO saturation level ([1]; after 24 hours) was 50%, the DMSO saturation level ([1]; by 72 hours of incubation) was 75% and the “mean DMSO penetration % compared to time 0 (one-way ANOVA, p<0.05)” value ([1]; free-swelling IVDs, after 24 hours of incubation) was “significantly different”.

For CC(O)CO (stereo not shown) [PG, propylene glycol], the “effect on cell viability in a monolayer cell culture” value [2] was “devastating for cell viability”.
